Where a name gives a salt, the structure may show the parent alone.
Experiments:
[1] = system: A431 cells; test: Apoptosis assay (Annexin V / TO-PRO-3 flow cytometry), A431; conditions: 120 h
[2] = system: Ad-MSC 3 cells; test: Apoptosis assay (Annexin V / TO-PRO-3 flow cytometry), Ad-MSC 3; assay type: cell-based, human; conditions: for type of cell death in MSCs (in words): high concentrations: doxorubicin 1 µM, nutlin-3 50 µM
Experimental: Apoptosis detection was based on the Annexin-V molecule binding to phosphatidylserine membrane molecules. Two cell lines were used to study apoptosis: Ad-MSC 3 cells were plated in a 5 × 10^4 cells/well concentration, while 4 × 10^4/well A431-mCh were seeded into each well in a 12-well tissue culture plate. […] At day 5, cells were trypsinized and centrifuged, while the supernatant was also collected and combined with the detached cells to include all already dead cells. Cells were washed twice with 500 µL of 1% BSA-PBS (bovine serum albumin dissolved in PBS, A8022, Sigma-Aldrich, St. Louis, MO, USA) solution and centrifuged at 400× G for 4 min. Cells were resuspended in 100 µL of 1× Annexin Binding Buffer (422201, Biolegend, San Diego, CA, USA), and 3 µL of Annexin V-Pacific Blue (A35122, Biolegend, San Diego, CA, USA) and 1 µL of TO-PRO-3 (R37170, Invitrogen, Waltham, MA, USA) were added to each sample. After 15 min of incubation, labeled and non-labeled samples were diluted 5-fold with 1× Annexin Binding Buffer and analyzed by Attune™ NxT flow cytometer.

[3] = system: Ad-MSC-GFP 3 cells; test: Live cell imaging, confluency, Ad-MSC-GFP 3; assay type: cell-based, human; conditions: for concentration at which significant drops in confluency were seen, as multiple of Ad-MSC-GFP 3 IC50: 120 h live cell imaging
Experimental: (§1) JuLI™ Stage Cell History Recorder was used to monitor a five-day cytotoxicity assay on Ad-MSC-GFP 3 and A431-mCh cell lines. […] Images were taken every 105 min for 120 h at 10× objective magnification. Live cell microscopy studies were evaluated using the “Growth curve” function of the JuLI STAT image analysis software (v2.0.1.0).

[4] = system: A431-mCh cells; test: Live cell imaging, confluency, A431-mCh; assay type: cell-based, human; conditions: 120 h; for number of viable colonies in live cell imaging: IC50 of A431-mCh and 10-fold higher concentration; for growth kinetics in live cell imaging: concentration 10-fold lower than A431-mCh IC50
Experimental: as §1

[5] = system: A431 cells; test: ROS induction (DCFH-DA), A431; assay type: cell-based, human; conditions: 1 h
Experimental: (§2) Ad-MSC 3 and A431 cells were seeded in a 96-well tissue culture plate and incubated for 24 h as described above. Cells were washed twice with HBSS and incubated in 100 µL of DCFH-DA dye (R252-10, Dojindo) according to the manufacturer’s instructions. Cells were incubated for 30 min at 37 °C and washed twice with HBSS. […] Supernatant was removed, and the cells were washed with HBSS before imaging with the JuLI^TM Stage Cell History Recorder (NanoEnTek).

[6] = system: Ad-MSC-GFP 3 cells; test: γ-H2AX staining of DNA double-stranded breaks, Ad-MSC-GFP 3; assay type: cell-based, human; conditions: for DNA double-stranded breaks (γ-H2AX): 120 h, IC50 concentrations of A431 (2 µM cisplatin, 0.1 µM doxorubicin, 30 µM nutlin-3)
Experimental: (§3) Ad-MSC-GFP 3 cells were seeded into glass-bottomed chamber slides (ibidi, Germany, Grafelfing, Germany) at 1 × 10^4/well and A431-mCh at 1.6 × 10^4/well density. […] Cells in all chambers were fixed with 4% PFA for 15 min and washed twice with PBS. Blocking solution (0.5% BSA-PBS, 0.1% TritonX-100, 5% goat serum, and 1% fish gelatin) was used for 1 h. γ-H2A.X primary antibody (MA1-2022, Invitrogen, United States) was diluted in blocking solution at 1:500 concentration and incubated overnight at 4 °C. Afterwards, the cells were washed with PBS twice and goat anti-mouse A633 secondary antibody (A21052, abcam, Cambridge, UK) was diluted at 1:250 concentration in blocking solution. Nuclei was stained with a Hoechst-33342 (23491-52-3, Dojindo, Kumamoto, Japan) at 1:1000 concentration.
(§4) To quantify DNA damage based on immunofluorescence against γ-H2AX, a semi-automated image analysis pipeline was set up using CellProfiler v4.1.3 [10]. First, images showing DAPI-stained nuclei were pre-processed by intensity normalization and Gaussian filtering (ϭ = 20 px) to suppress noise and remove artifacts caused by debris. Nuclei candidates were identified by threshold-based segmentation; false candidates were removed from the analysis manually. Using the remaining nuclei regions as masks, pixel intensities were measured on the γ-H2AX channel, thus, excluding non-nuclei signals.

[7] = system: A431-mCh cells; test: γ-H2AX staining of DNA double-stranded breaks, A431-mCh; assay type: cell-based, human; conditions: for DNA damage (γ-H2AX): 120 h, IC50 concentrations of A431 (2 µM cisplatin, 0.1 µM doxorubicin, 30 µM nutlin-3)
Experimental: as §3, §4

[8] = system: Ad-MSC 3 cells; test: ROS induction (DCFH-DA), Ad-MSC 3; assay type: cell-based, human; conditions: 1 h
Experimental: as §2

[9] = system: 6 MSCs and 3 cancer cell lines; test: Cytotoxicity / cell viability assay (PrestoBlue), panel of MSCs and cancer cell lines; assay type: cell-based, human; conditions: 5 days treatment, IC50 comparison
Experimental: (§5) Cells were seeded in a 96-well tissue culture plate in 100 µL of medium. Ad-MSC-GFP 1, iAd-MSC-GFP 1, Ad-MSC-GFP 2, Ad-MSC-GFP 3, BM-MSC, and HFF were seeded at 5 × 10^3/100 µL/well density and A431-mCh, MES-SA-mCh, and MCF-7-GFP at 4 × 10^3 cells/100 µL/well concentration in DMEM-F12 media. Different initial cell numbers were used due to different proliferation rates of different cell types. Cells were allowed to attach overnight at 37 °C and the day after were treated with the drugs using the indicated concentrations in 100 µL. Cell viability was measured by using PrestoBlue™ Cell Viability Reagent (A13232, Invitrogen, Waltham, MA, USA). To address metabolic differences between cancer cells and MSCs, the assay was optimized for each cell line, cells were incubated with 5 or 12.5% PrestoBlue™ Cell Viability Reagent diluted in PBS at 37 °C/5% CO2 for 1–1.5 h 5 days after the treatment. The fluorescence signal was measured by an EnSpire (Perkin Elmer, Waltham, MA, USA) fluorometer at 555 nm (excitation)/585 nm (emission) wavelength.
After the incubation period, the relative fluorescence data was measured. The data was normalized with the fluorescence of blank samples (cell culture media). A sigmoidal dose–response curve was fitted to the normalized measurement data and the logarithm of the concentration using the least square method. An inhibitory concentration of 50% (IC50 and log10) was interpolated from the fitted graph. […] In these cases, IC50 was calculated from the line connecting the measurement points. For repeated measurements, average and standard deviation was calculated based on the logarithm of the IC50 values.
To compare the mean IC50 values of six mesenchymal stem cell lines (Group-1) and three cancer cell lines (Group-2), first an F-test was performed to check equal variances between the groups, then two-sample unpaired t-tests were performed to calculate significance using Microsoft® Excel® 2016 (16.0.4266.1001).

[10] = system: Ad-MSC-GFP 3 cells; test: Cytotoxicity / cell viability assay (PrestoBlue) on Ad-MSC-GFP 3; assay type: cell-based, human; conditions: Ad-MSC-GFP 3 / Ad-MSC 3, 5 days
Experimental: as §5
(§6) After the incubation period, the relative fluorescence data was measured. The data was normalized with the fluorescence of blank samples (cell culture media). […] In these cases, IC50 was calculated from the line connecting the measurement points. For repeated measurements, average and standard deviation was calculated based on the logarithm of the IC50 values.

[11] = system: Ad-MSC 3 cells; test: Senescence β-galactosidase staining, Ad-MSC 3; assay type: cell-based, human; conditions: 4 µM; 5 days treatment then 7 days drug-free
Experimental: At day 5, media was removed and replaced with 200 µL of completed DMEM-F12 for 7 days. The Senescence β-Galactosidase Staining Kit (9860S, Cell Signaling Technology, Danvers, MA, USA) was used to detect senescent cells. Cells were fixed with fixing solution, washed with PBS, stained with X-gal solution overnight at 37 °C without CO2, and coated with 70% glycerol.

[12] = system: A431-mCh cells; test: Cytotoxicity / cell viability assay (PrestoBlue) on A431; assay type: cell-based, human; conditions: Homo sapiens, A-431, 120 h; A431, 5 days
Experimental: as §5, §6

[13] = system: A431 cells; test: Cell proliferation (CytoTell) and light microscopy after treatment, A431; assay type: cell-based, human; conditions: 0.1 µM
Experimental: (§7) Cell division was analyzed by the fluorescent CytoTell Green dye (AAT Bioquest, Sunnyvale, CA, USA) according to the manufacturer’s guidelines. Briefly, 3 × 10^5 cells were centrifuged and stained with 2 µL of CytoTell dye diluted in 1 mL of serum-free DMEM and incubated at 37 °C for 30 min. After centrifugation, half of the cells (1.5 × 10^5) were plated into T25 cell culture flasks in 5 mL of media and analyzed at day 5. Day 1 samples were co-stained with Zombie Violet dye (423113, Biolegend) to exclude dead cells and analyzed by Attune™ NxT flow cytometry. Brightfield images were taken with the Olympus IX51 microscope. The scale bar is the same in every image.

[14] = system: Ad-MSC 3 cells; test: Cell proliferation (CytoTell) and light microscopy after treatment, Ad-MSC 3; assay type: cell-based, human; conditions: 0.1 µM
Experimental: as §7

[15] = different concentrations incl. higher

## COc1ccc(C2=N[C@@H](c3ccc(Cl)cc3)[C@@H](c3ccc(Cl)cc3)N2C(=O)N2CCNC(=O)C2)c(OC(C)C)c1 [nutlin-3]
[1]; 30 µM
  apoptosis (in words): modest apoptotic response
[2]; 30 µM, 120 h
  apoptosis (in words): only a slight increase in the number of apoptotic MSCs
[2]
  type of cell death in MSCs (in words): necrotic cell death
[3]
  concentration at which significant drops in confluency were seen, as multiple of Ad-MSC-GFP 3 IC50: 3 fold
[4]; either concentration, p53 mutant
  effect on cultures in live cell imaging: no effect
[5]; 30 µM
  ROS induction: considerable amount of ROS
[6]
  DNA double-stranded breaks (γ-H2AX): no DNA break was detected
[7]
  DNA damage (γ-H2AX): massive DNA damage
[8]; 30 µM
  ROS induction: considerable amount of ROS

## N.N.[Cl][Pt][Cl] [cisplatin]
[9]
  drug sensitivity of MSCs compared with cancer cells (in words): required significantly higher concentrations to kill MSCs than cancer cells
[10]
  IC50: 10000 nM
[2]; 10 µM (IC50 level of Ad-MSC-GFP 3)
  apoptosis (in words): notable amounts of late apoptosic cells
[2]; 120 h
  apoptosis compared to untreated controls (in words): virtually no apoptosis
[3]
  concentration at which significant drops in confluency were seen, as multiple of Ad-MSC-GFP 3 IC50: 2 fold
[11]
  SA-β-Gal staining (senescence): slightly increased SA-ß-Gal staining
[4]
  number of viable colonies in live cell imaging: significantly reduced the number of viable colonies
  growth kinetics in live cell imaging: did not alter growth kinetics
[5]; [15]
  ROS induction: did not induce ROS
[6]; 10 µM, 5 days
  number of double-stranded breaks (γ-H2AX): significantly increased the number of double-stranded breaks
[6]
  DNA double-stranded breaks (γ-H2AX): no DNA break was detected
[7]; 10 µM, 5 days
  effect on A431 cells in γ-H2AX experiment: almost completely eradicating A431 cells
[7]
  DNA damage (γ-H2AX): massive DNA damage
[8]; [15]
  ROS induction: did not induce ROS

## COc1cccc2c1C(=O)c1c(O)c3c(c(O)c1C2=O)C[C@@](O)(C(=O)CO)C[C@@H]3O[C@H]1C[C@H](N)[C@H](O)[C@H](C)O1 [doxorubicin, doxorubicin hydrochloride]
[9]
  drug sensitivity of MSCs compared with cancer cells (in words): equally toxic to MSCs and cancer cells
[1]; 0.1 µM
  apoptosis (in words): apoptosis in almost all A431 cells
[12]
  IC50: 100 nM
[13]
  cell killing (light microscopy): killed most of the cancer cells
[13]; five-day treatment
  proliferation (CytoTell): decreased proliferation
[10]; Homo sapiens, 120 h
  IC50: 100 nM
[2]; 0.1 µM, 120 h
  apoptosis (in words): apoptosis was not detected
[2]; concentration increased 10-fold (1 µM), 120 h
  apoptosis / cell death (in words): only late necrosis was found
[2]
  type of cell death in MSCs (in words): necrotic cell death
[3]; 120 h of treatment
  decrease of cultures in live cell imaging: no significant decrease
[4]
  number of viable colonies in live cell imaging: significantly reduced the number of viable colonies
  growth kinetics in live cell imaging: did not alter growth kinetics
[5]; [15]
  ROS induction: did not induce ROS
[6]
  DNA double-stranded breaks (γ-H2AX): no DNA break was detected
[14]
  cell number (light microscopy): reduced cell number
[14]; five-day treatment
  proliferation (CytoTell): decreased proliferation
[7]
  DNA damage (γ-H2AX): massive DNA damage
[8]; [15]
  ROS induction: did not induce ROS
